This is an account of results in PubChem BioAssay AID248 (DTP/NCI, 2004).

The subject of the assay is L1210 leukemia ip in BDF1 mice, survival T/C. As to the kind of experiment: NCI In Vivo Anticancer Drug Screen. Data for tumor model L1210 Leukemia (intraperitoneal) in B6D2F1 (BDF1) mice. The note with it: endpoint: mean survival time, higher = longer survival. In outline: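 Value reflects the ratio of survival in compound-treated mice to survival in vehicle-treated controls, with both groups carrying the same transplanted tumor.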

Setting [1] is: dose: 100.0 mg/kg/injection, schedule: Q04DX003 (ip), vehicle: saline with Tween-80.
[2] abbreviates: dose: 200.0 mg/kg/injection, schedule: Q04DX003 (ip), vehicle: saline with Tween-80.
The mark [3] stands for this setting: dose: 400.0 mg/kg/injection, schedule: Q04DX003 (ip), vehicle: saline with Tween-80.
[4] abbreviates: dose: 100.0 mg/kg/injection, schedule: Q01DX001 (ip), vehicle: saline.
Setting [5] is: dose: 400.0 mg/kg/injection, schedule: Q01DX001 (ip), vehicle: saline.
[6] abbreviates: dose: 100.0 mg/kg/injection, schedule: Q04DX003 (ip), vehicle: saline.
Where [7] appears, read: dose: 100.0 mg/kg/injection, schedule: Q01DX009 (ip), vehicle: Klucel (hydroxypropylcellulose) (HPC).
Where [8] appears, read: dose: 200.0 mg/kg/injection, schedule: Q01DX009 (ip), vehicle: Klucel (hydroxypropylcellulose) (HPC).
Where [9] appears, read: dose: 400.0 mg/kg/injection, schedule: Q01DX009 (ip), vehicle: Klucel (hydroxypropylcellulose) (HPC).
[10] abbreviates: dose: 50.0 mg/kg/injection, schedule: Q01DX001 (ip), vehicle: carboxymethylcellulose (CMC).
Setting [11] is: dose: 100.0 mg/kg/injection, schedule: Q01DX001 (ip), vehicle: carboxymethylcellulose (CMC).
Where [12] appears, read: dose: 200.0 mg/kg/injection, schedule: Q01DX001 (ip), vehicle: carboxymethylcellulose (CMC).
[13] abbreviates: dose: 400.0 mg/kg/injection, schedule: Q01DX001 (ip), vehicle: carboxymethylcellulose (CMC).

“And” between values parts separate entries of the source, which are not always exact repeats. Identical values can stand only once. Toxic doses and inconclusive results are not listed.

With `CC(CCC(=O)O)(NC(=O)c1ccc(NCc2ccc3nc(N)nc(N)c3c2)cc1)C(=O)O` (configuration not stated), the T/C by setting is: (dose: 0.5 mg/kg/injection, schedule: Q01DX009 (ip), vehicle: saline) 150 % of control; (dose: 1.0 mg/kg/injection, schedule: Q01DX009 (ip), vehicle: saline) 163 % of control and 176 % of control; (dose: 4.0 mg/kg/injection, schedule: Q01DX009 (ip), vehicle: saline) 163 % of control; (dose: 8.0 mg/kg/injection, schedule: Q01DX009 (ip), vehicle: saline) 112 % of control; (dose: 8.0 mg/kg/injection, schedule: Q04DX003 (ip), vehicle: saline) 115 % of control; (dose: 16.0 mg/kg/injection, schedule: Q01DX009 (ip), vehicle: saline) 102 % of control. The T/C is 123 % of control (dose: 16.0 mg/kg/injection, schedule: Q04DX003 (ip), vehicle: saline); 115 % of control (dose: 64.0 mg/kg/injection, schedule: Q04DX003 (ip), vehicle: saline); 99 % of control (dose: 128.0 mg/kg/injection, schedule: Q04DX003 (ip), vehicle: saline).
With `CCOC(=O)C12CC=CC(CCC1)C2=O` (configuration not stated) (tested in a mixture with another compound), the T/C is, setting by setting: (dose: 100.0 mg/kg/injection, schedule: Q01DX009 (ip), vehicle: saline with Tween-80) 112 % of control; under setting [1], 103 % of control; (dose: 200.0 mg/kg/injection, schedule: Q01DX009 (ip), vehicle: saline with Tween-80) 101 % of control; under setting [2], 102 % of control; (dose: 400.0 mg/kg/injection, schedule: Q01DX009 (ip), vehicle: saline with Tween-80) 101 % of control; under setting [3], 105 % of control.
Consider `O=C1/C(=C\c2ccc(O)cc2)Oc2cc(O)ccc21`, for which the T/C is 98 % of control (dose: 100.0 mg/kg/injection, schedule: Q01DX001 (ip), vehicle: saline with Tween-80); 87 % of control (dose: 200.0 mg/kg/injection, schedule: Q01DX001 (ip), vehicle: saline with Tween-80); 90 % of control (dose: 400.0 mg/kg/injection, schedule: Q01DX001 (ip), vehicle: saline with Tween-80).
For the compound `CCOP(N)(=O)SC` (configuration not stated), under “dose: 5.0 mg/kg/injection, schedule: Q01DX001 (ip), vehicle: saline”, the T/C is 101 % of control.
Consider `Nc1ccc(Nc2cc(S(=O)(=O)O)c(N)c3c2C(=O)c2ccccc2C3=O)cc1`, for which the T/C runs as follows: under setting [4], 97 % of control; under setting [5], 93 % of control.
For `CCCCOc1ccc(O)cc1`, the T/C (dose: 100.0 mg/kg/injection, schedule: Q04DX003 (ip), vehicle: other) was 117 % of control; the T/C (dose: 200.0 mg/kg/injection, schedule: Q04DX003 (ip), vehicle: other) was 100 % of control; the T/C (dose: 400.0 mg/kg/injection, schedule: Q04DX003 (ip), vehicle: other) was 108 % of control.
In the case of `Nn1cn[nH]c1=S`, the T/C is 98 % of control under setting [6]; 103 % of control (dose: 200.0 mg/kg/injection, schedule: Q04DX003 (ip), vehicle: saline); 98 % of control (dose: 400.0 mg/kg/injection, schedule: Q04DX003 (ip), vehicle: saline).
As to `O=C(O)CCC(C(=O)O)N1C(=O)c2ccccc2C1=O` (configuration not stated), the T/C under setting [1] is 97 % of control, the T/C under setting [2] is 102 % of control and the T/C under setting [3] was 105 % of control.
On to `O=C1NC(=O)C(Cl)(c2ccccc2)C(=O)N1`, for which the T/C is 99 % of control (dose: 25.0 mg/kg/injection, schedule: Q04DX003 (ip), vehicle: saline); 87 % of control (dose: 50.0 mg/kg/injection, schedule: Q04DX003 (ip), vehicle: saline); 96 % of control under setting [6].
On to `O=C(Nc1ccc(I)cc1)Nc1cc(C(F)(F)F)ccc1Cl`, for which the T/C by setting is: under setting [7], 100 % of control; under setting [8], 93 % of control; under setting [9], 88 % of control.
Turning to `CC(c1ccccc1)C(C(=O)O)C(=O)O` (configuration not stated), the T/C runs as follows: under setting [10], 100 % of control; under setting [11], 96 % of control; under setting [12], 96 % of control; under setting [13], 97 % of control.
`CCOc1ccc(N2C(=O)CC(Sc3ccccc3N)C2=O)cc1` (configuration not stated): the T/C runs as follows: under setting [1], 89 % of control; under setting [2], 90 % of control; under setting [3], 88 % of control.
With `NC(=S)N/N=C\c1nccc2c(C(=O)O)cccc12`, the T/C is 106 % of control (dose: 100.0 mg/kg/injection, schedule: Q04DX002 (ip), vehicle: saline) and 106 % of control (dose: 200.0 mg/kg/injection, schedule: Q04DX002 (ip), vehicle: saline).
`CCOC(=O)C(Cc1ccccc1)NP(=O)(OCCCl)OCCCl` (configuration not stated): the T/C runs as follows: under setting [7], 104 % of control; (dose: 100.0 mg/kg/injection, schedule: Q04DX003 (ip), vehicle: Klucel (hydroxypropylcellulose) (HPC)) 95 % of control; under setting [8], 96 % of control; (dose: 200.0 mg/kg/injection, schedule: Q04DX003 (ip), vehicle: Klucel (hydroxypropylcellulose) (HPC)) 95 % of control; under setting [9], 101 % of control; (dose: 400.0 mg/kg/injection, schedule: Q04DX003 (ip), vehicle: Klucel (hydroxypropylcellulose) (HPC)) 87 % of control.
On to `NP(Cl)(c1ccccc1)(c1ccccc1)c1ccccc1`, for which the T/C is 96 % of control (dose: 0.2 mg/kg/injection, schedule: Q04DX003 (ip), vehicle: Klucel (hydroxypropylcellulose) (HPC)); 99 % of control (dose: 0.39 mg/kg/injection, schedule: Q04DX003 (ip), vehicle: Klucel (hydroxypropylcellulose) (HPC)); 97 % of control (dose: 0.78 mg/kg/injection, schedule: Q04DX003 (ip), vehicle: Klucel (hydroxypropylcellulose) (HPC)).
As for `O=C(Nc1ccc([N+](=O)[O-])cc1Br)c1ccc(C(=O)Nc2ccc([N+](=O)[O-])cc2Br)cc1`, the T/C by setting is: under setting [4], 97 % of control; (dose: 200.0 mg/kg/injection, schedule: Q01DX001 (ip), vehicle: saline) 105 % of control; under setting [5], 103 % of control.
As to `Cc1ccc(NCc2nc(N)nc(Nc3ccccc3)n2)cc1`, the T/C runs as follows: under setting [1], 97 % of control; under setting [2], 92 % of control; under setting [3], 93 % of control.
With `COc1ccc2c(c1)C(C)(C)N(C)CC2`, for the setting “dose: 100.0 mg/kg/injection, schedule: Q04DX003 (ip), vehicle: acetone”, the T/C is 104 % of control.
With `S=c1nc[nH]c2c1ncn2CCCc1ccccc1`, the T/C under setting [10] was 106 % of control, the T/C under setting [11] was 98 % of control, the T/C under setting [12] was 98 % of control and the T/C under setting [13] was 95 % of control.
Take `CCOc1ccc(OCC)c(NC(=O)c2ccccc2)c1`: the T/C by setting is: under setting [1], 94 % of control; under setting [2], 92 % of control; under setting [3], 95 % of control.
For `NC(N)=N/N=C/c1ccccc1C(=O)O`, the T/C is 106 % of control (dose: 62.5 mg/kg/injection, schedule: Q01DX Z (ip), vehicle: saline); 106 % of control (dose: 125.0 mg/kg/injection, schedule: Q01DX Z (ip), vehicle: saline); 101 % of control (dose: 250.0 mg/kg/injection, schedule: Q01DX Z (ip), vehicle: saline); 100 % of control (dose: 500.0 mg/kg/injection, schedule: Q01DX Z (ip), vehicle: saline).
For the compound `O=S(=O)(O)CCN1CCN(CCS(=O)(=O)O)CC1`, the T/C was 95 % of control under setting [7], 95 % of control under setting [8] and 101 % of control under setting [9].
As for `NC(N)=N/N=C\c1c[nH]c2ccc(Br)cc12`, the T/C runs as follows: (dose: 15.0 mg/kg/injection, schedule: Q01DX Z (ip), vehicle: saline) 96 % of control; (dose: 30.0 mg/kg/injection, schedule: Q01DX Z (ip), vehicle: saline) 113 % of control; (dose: 60.0 mg/kg/injection, schedule: Q01DX Z (ip), vehicle: saline) 103 % of control; (dose: 120.0 mg/kg/injection, schedule: Q01DX Z (ip), vehicle: saline) 106 % of control; (dose: 240.0 mg/kg/injection, schedule: Q01DX Z (ip), vehicle: saline) 98 % of control; (dose: 240.0 mg/kg/injection, schedule: Q01DX Z (oral), vehicle: saline) 94 % of control. For the same compound, for the setting “dose: 480.0 mg/kg/injection, schedule: Q01DX Z (oral), vehicle: saline”, the T/C was 94 % of control.
